Measurements from patent US20070191442A1, “Aqueous Pharmaceutical Formulations of ER-beta Selective Ligands” (priority 2006, published 2007).

Columns and labels:
Type in all cases: physicochemical
[1] = Water solubility of Compound 1 with increasing pH (FIG. 1)
Excerpt: FIG. 1 depicts the water solubility of Compound 1 with increasing pH. The aqueous pharmaceutical compositions of the invention include a solubilizer/complexant component, to aid in solubilizing the ERβ selective ligand. […] Accordingly, present compositions include a solubilizer/complexant component to aid in solubilization. Generally, the solubilizer/complexant component consists of one or more solubilizing and/or complexing agents known to be useful in the preparation of pharmaceutical formulations. In some embodiments, the solubilizer/complexant component consists of a single solubilizing and/or complexing agent. In some embodiments, the solubilizer/complexant component includes, but is not limited to, cosolvents such as glycerine, ethanol, propylene glycol, sorbitol and polyethylene glycol, and surfactants such as the polyoxyethylene sorbitan fatty acid esters (e.g., polysorbate 80), polyoxyethylene castor oil derivatives (e.g., cremophor EL, cremophor RH40), vitamin E TPGS (d-alpha-tocopheryl polyethylene glycol), solutol (polyethylene glycol esters of hydroxystearate), polyoxyethylene-polyoxypropylene copolymers, polyoxyethylene fatty alcohol ethers, polyethoxylated fatty acid esters, polyoxyethylene-glycerol fatty esters, polyglycolized glycerides, polyethoxylated cholesterols, polyethoxylated sterols, and polyethoxylated vegetable oils. In some embodiments, the solubilizer/complexant component includes, but is not limited to, cosolvents such as glycerine, ethanol, propylene glycol, and polyethylene glycol, and surfactants such as the polyoxyethylene sorbitan fatty acid esters, polyoxyethylene castor oil derivatives, vitamin E TPGS, and solutol. […] Examples of some preferred solubilizing and/or complexing agents include cyclodextrins (including alpha, beta and gamma cyclodextrins) and substituted cyclodextrins, for example hydroxypropyl beta-cyclodextrin and sulfobutyl ether beta-cyclodextrin, with hydroxypropyl beta-cyclodextrin being preferred. […]

[2] = Solubility of Compound 1 formulated with HPBCD (FIG. 2, FIG. 3)
Excerpt: FIG. 2 depicts the water solubility of the unionized form of Compound 1 with increasing concentrations of hydroxypropyl-beta-cyclodextrin (HPBCD). FIG. 3 depicts the water solubility of the ionized form of Compound 1 at pH 9.0 and 10.3 with increasing concentrations of hydroxypropyl-beta-cyclodextrin (HPBCD).

[3] = Serial dilution study with phosphate buffered saline as diluent and blood model; precipitate observed for two minutes
Experimental: A serial dilution study was also undertaken to assess the risk of Compound 1 precipitating upon injection. Phosphate buffered saline (PBS) was used as the diluent and blood model. Accordingly, 10 mg/mL (at pH 9.2) and 30 mg/mL (at pH 10.5) compositions of Compound 1 were prepared by the method described in Example 1, both having 15% HPBCD. The solutions were then serially diluted with PBS.

[4] = Chemical stability of a pharmaceutical composition of Compound 1 (potency, degradation impurities by HPLC); settings: for Potency (percent of the initial API concentration) / Impurity (MW not given) / Impurity MW 279 / Impurity MW 556 / Impurity MW 574: 15% HPBCD, pH 9.2; for Impurity (MW not given) / Impurity MW 279 / Impurity MW 556 / Impurity MW 574: HPLC
Experimental: As used herein, potency refers to the percent of the initial API concentration.
The potency of each composition was determined, and the concentration of impurities from degradation was measured by HPLC, as shown in Table 4.

solubility at the pH maxima considered safe for IV administration ([1]; about pH 10): poorly soluble | solubility at lower pH ([1]; lower pH): relatively insoluble | solubility in water ([1]; water): insoluble in water | increase in solubility ([2]; 15% HPBCD at pH 9, compared with free acid form at pH 6.3-7.6 formulated with 15% HPBCD): 10 fold | increase in solubility ([2]; 15% HPBCD at pH 10.3, compared with free acid form at pH 6.3-7.6 formulated with 15% HPBCD): 30 fold | Precipitate at 2 min. ([3]; 10 mg/mL (pH 9.2) composition, 15% HPBCD, diluted with PBS to 0.009766 mg/mL, pH 7.43): none | Precipitate at 2 min. ([3]; 10 mg/mL (pH 9.2) composition, 15% HPBCD, diluted with PBS to 0.019531 mg/mL, pH 7.45): none | Precipitate at 2 min. ([3]; 10 mg/mL (pH 9.2) composition, 15% HPBCD, diluted with PBS to 0.039063 mg/mL, pH 7.47): none | Precipitate at 2 min. ([3]; 10 mg/mL (pH 9.2) composition, 15% HPBCD, diluted with PBS to 0.078125 mg/mL, pH 7.57): none | Precipitate at 2 min. ([3]; 10 mg/mL (pH 9.2) composition, 15% HPBCD, diluted with PBS to 0.15625 mg/mL, pH 7.75): none | Precipitate at 2 min. ([3]; 10 mg/mL (pH 9.2) composition, 15% HPBCD, diluted with PBS to 0.3125 mg/mL, pH 8.01): none | Precipitate at 2 min. ([3]; 10 mg/mL (pH 9.2) composition, 15% HPBCD, diluted with PBS to 0.625 mg/mL, pH 8.36): none | Precipitate at 2 min. ([3]; 10 mg/mL (pH 9.2) composition, 15% HPBCD, diluted with PBS to 1.25 mg/mL, pH 8.65): none | Precipitate at 2 min. ([3]; 10 mg/mL (pH 9.2) composition, 15% HPBCD, diluted with PBS to 2.5 mg/mL, pH 8.83): none | Precipitate at 2 min. ([3]; 10 mg/mL (pH 9.2) composition, 15% HPBCD, diluted with PBS to 5 mg/mL, pH 9.04): none | Precipitate at 2 min. ([3]; 30 mg/mL (pH 10.5) composition, 15% HPBCD, diluted with PBS to 0.029297 mg/mL, pH 7.55): yes | Precipitate at 2 min. ([3]; 30 mg/mL (pH 10.5) composition, 15% HPBCD, diluted with PBS to 0.058594 mg/mL, pH 7.68): yes | Precipitate at 2 min. ([3]; 30 mg/mL (pH 10.5) composition, 15% HPBCD, diluted with PBS to 0.117188 mg/mL, pH 8): yes | Precipitate at 2 min. ([3]; 30 mg/mL (pH 10.5) composition, 15% HPBCD, diluted with PBS to 0.234375 mg/mL, pH 8.45): yes | Precipitate at 2 min. ([3]; 30 mg/mL (pH 10.5) composition, 15% HPBCD, diluted with PBS to 0.46875 mg/mL, pH 8.82): none | Precipitate at 2 min. ([3]; 30 mg/mL (pH 10.5) composition, 15% HPBCD, diluted with PBS to 0.9375 mg/mL, pH 9): none | Precipitate at 2 min. ([3]; 30 mg/mL (pH 10.5) composition, 15% HPBCD, diluted with PBS to 1.875 mg/mL, pH 9.32): none | Precipitate at 2 min. ([3]; 30 mg/mL (pH 10.5) composition, 15% HPBCD, diluted with PBS to 3.75 mg/mL, pH 9.6): none | Precipitate at 2 min. ([3]; 30 mg/mL (pH 10.5) composition, 15% HPBCD, diluted with PBS to 7.5 mg/mL, pH 9.9): none | Precipitate at 2 min. ([3]; 30 mg/mL (pH 10.5) composition, 15% HPBCD, diluted with PBS to 15 mg/mL, pH 10.17): none | Potency (percent of the initial API concentration) ([4]; stored 1 mo. at 25 °C): 100.8 | Potency (percent of the initial API concentration) ([4]; stored 1 mo. at 40 °C): 100.4 | Impurity (MW not given) ([4]; stored 1 mo. at 40 °C): 0.06 | Impurity MW 279 ([4]; stored 1 mo. at 40 °C): 0.07 | Impurity MW 556 ([4]; stored 1 mo. at 40 °C): 0.33 | Impurity MW 574 ([4]; stored 1 mo. at 40 °C): 0.03 | Potency (percent of the initial API concentration) ([4]; stored 3 mo. at 4 °C): 99.9 | Potency (percent of the initial API concentration) ([4]; stored 3 mo. at 25 °C): 98.9 | Impurity (MW not given) ([4]; stored 3 mo. at 25 °C): 0.02 | Impurity MW 279 ([4]; stored 3 mo. at 25 °C): 0.03 | Impurity MW 556 ([4]; stored 3 mo. at 25 °C): 0.11 | Potency (percent of the initial API concentration) ([4]; stored 3 mo. at 40 °C): 98.1 | Impurity (MW not given) ([4]; stored 3 mo. at 40 °C): 0.12 | Impurity MW 279 ([4]; stored 3 mo. at 40 °C): 0.16 | Impurity MW 556 ([4]; stored 3 mo. at 40 °C): 0.62 | Impurity MW 574 ([4]; stored 3 mo. at 40 °C): 0.06 | Potency (percent of the initial API concentration) ([4]; stored 6 mo. at 4 °C): 98.0 | Impurity MW 556 ([4]; stored 6 mo. at 4 °C): 0.06 | Potency (percent of the initial API concentration) ([4]; stored 6 mo. at 25 °C): 97.7 | Impurity (MW not given) ([4]; stored 6 mo. at 25 °C): 0.04 | Impurity MW 279 ([4]; stored 6 mo. at 25 °C): 0.05 | Impurity MW 556 ([4]; stored 6 mo. at 25 °C): 0.36 | Impurity MW 574 ([4]; stored 6 mo. at 25 °C): 0.03 | Potency (percent of the initial API concentration) ([4]; stored 6 mo. at 40 °C): 93.3 | Impurity (MW not given) ([4]; stored 6 mo. at 40 °C): 0.3 | Impurity MW 279 ([4]; stored 6 mo. at 40 °C): 0.4 | Impurity MW 556 ([4]; stored 6 mo. at 40 °C): 1.57 | Impurity MW 574 ([4]; stored 6 mo. at 40 °C): 0.11 | molecular weight 556 impurity ([4]; comparable formulation without the HPBCD (5 mg/mL, 50 mM glycine buffer, pH 11), at three days): 0.34%
Compound: N#Cc1cc(-c2ccc(O)c(F)c2)cc2ccc(O)cc12 [Compound 1, 3-(3-Fluoro-4-hydroxy-phenyl)-7-hydroxy-naphthalene-1-carbonitrile]
concentration of Compound 1 on dilution relative to water solubility (FIG. 4) ([3]; 10 mg/mL and 30 mg/mL solutions, 15% HPBCD, serial dilution with PBS): maintained above the water solubility for sufficient time for complete dilution in the blood stream | tendency to precipitate upon dilution ([3]; 10 mg/mL solution versus 30 mg/mL solution, both 15% HPBCD, diluted with PBS): lower tendency to precipitate upon dilution
